Key:
ddY male mice = test: Forced swimming test in mice (antidepressant action); assay type: in vivo
Experimental: When an antidepressant is administered in advance, the immobility time is shortened. The shortened immobility time is used as an index of an antidepressant action to be evaluated. This test method is widely used as an experimental animal model reflecting the clinical antidepressant effect.
In this test, the action of a combined use of 7-[4-(4-benzo[b]thiophen-4-yl-piperazin-1-yl)butoxy]-1H-quinolin-2-one (Compound (I)) and 9 kinds of antidepressants (serotonin reuptake inhibitors, or serotonin and norepinephrine reuptake inhibitors) on the immobility time was compared.
As the animal, ddY male mice (5 to 6-week-old) were used. Various antidepressants and Compound (I) or each vehicle were administered to the mice before the start of the test, the mice were placed in a cylindrical water tank, and immobility time during 2 min to 4 min after the start of swimming was measured by a behavior analysis apparatus with an infrared sensor (SCANET; Melquest Co., Ltd.).
Compound (I) was dissolved in 1% lactic acid-physiological saline, and various antidepressants were suspended or dissolved in 5% gum arabic-distilled water and used. Various antidepressants (fluoxetine (75 mg/kg), escitalopram (60 mg/kg), paroxetine (10 mg/kg), sertraline (15 mg/kg), venlafaxine (15 mg/kg), milnacipran (30 mg/kg), fluvoxamine (75 mg/kg)) were orally administered 60 min before the start of the test, duloxetine (20 mg/kg) and desvenlafaxine (20 mg/kg) were orally administered 30 min before the start of the test, and Compound (I) (0.001 or 0.003 mg/kg) was intraperitoneally administered 15 min before the start of the test.

male ddY mice = test: Mouse marble-burying behavior test; assay type: in vivo; conditions: Compound (I) 0.1 mg/kg p.o., 30 min before test, n=10
Description: Marble-burying behavior test is a behavioral evaluation test utilizing the behavior of a mouse to bury marbles on the bedding. Since this characteristic behavior of burying harmless glass marbles in the bedding reflects the anxiety state of the animal, and is apparently similar to a compulsive act of obsessive-compulsive disorder patient, which is repeated with the recognition of irrationality, it is particularly considered a model of obsessive-compulsive disorder^1),2),3),4).
As the animal, male ddY mice (6- to 7-week-old) were used. In the test, a plastic cage (26×32×17 cm) was filled with chips to about 5 cm deep in a soundproof room, and 25 marbles (diameter 15 mm, weight about 6 g) were placed thereon at equal distances. Each mouse was orally administered with Compound (I) simultaneously with an antianxiety drug or an antidepressant or a vehicle thereof, and 30 min later, each mouse was placed in a cage containing the marbles. 30 min later, the animal was taken out from the cage, and the number of marbles covered with chips by ⅔ or more was visually counted.
Compound (I) (0.1 mg/kg) and various antidepressants (fluoxetine (10 mg/kg), paroxetine (10 mg/kg), sertraline (10 mg/kg), fluvoxamine (15 mg/kg)) were suspended in 5% gum arable-distilled water, and diazepam (antianxiety drug, 1 mg/kg) was diluted with physiological saline and used. All drugs and vehicles thereof were orally administered 30 min before the start of the test.

[1] = Compound (I) 0.001 mg/kg i.p. 15 min before test, venlafaxine 15 mg/kg p.o. 60 min before, n=10
[2] = Compound (I) 0.003 mg/kg i.p. 15 min before test, desvenlafaxin 20 mg/kg p.o. 30 min before, n=8
[3] = Compound (I) 0.003 mg/kg i.p. 15 min before test, duloxetine 20 mg/kg p.o. 30 min before, n=7
[4] = Compound (I) 0.003 mg/kg i.p. 15 min before test, escitalopram 60 mg/kg p.o. 60 min before, n=10
[5] = Compound (I) 0.003 mg/kg i.p. 15 min before test, fluoxetine 75 mg/kg p.o. 60 min before, n=10
[6] = Compound (I) 0.003 mg/kg i.p. 15 min before test, fluvoxamine 75 mg/kg p.o. 60 min before, n=10
[7] = Compound (I) 0.003 mg/kg i.p. 15 min before test, milnacipran 30 mg/kg p.o. 60 min before, n=10
[8] = Compound (I) 0.003 mg/kg i.p. 15 min before test, paroxetine 10 mg/kg p.o. 60 min before, n=10
[9] = Compound (I) 0.003 mg/kg i.p. 15 min before test, sertraline 15 mg/kg p.o. 60 min before, n=7

O=c1ccc2ccc(OCCCCN3CCN(c4cccc5sccc45)CC3)cc2[nH]1 [Compound (I), 7-[4-(4-benzo[b]thiophen-4-yl-piperazin-1-yl)butoxy]-1H-quinolin-2-one]
immobility time relative to control (%) (ddY male mice; [1]): 99%
immobility time relative to control (%) (ddY male mice; [2]): 96%
immobility time relative to control (%) (ddY male mice; [3]): 98%
immobility time relative to control (%) (ddY male mice; [4]): 96%
immobility time relative to control (%) (ddY male mice; [5]): 100%
immobility time relative to control (%) (ddY male mice; [6]): 100%
immobility time relative to control (%) (ddY male mice; [7]): 101%
immobility time relative to control (%) (ddY male mice; [8]): 98%
immobility time relative to control (%) (ddY male mice; [9]): 87%
number of marbles buried (average ± standard error) (male ddY mice; diazepam 1 mg/kg p.o.): 14.4 ± 2.0
number of marbles buried relative to control (%) (male ddY mice; diazepam 1 mg/kg p.o.): 96%
number of marbles buried (average ± standard error) (male ddY mice; fluoxetine 10 mg/kg p.o.): 14.4 ± 2.0
number of marbles buried relative to control (%) (male ddY mice; fluoxetine 10 mg/kg p.o.): 82%
number of marbles buried (average ± standard error) (male ddY mice; fluvoxamine 15 mg/kg p.o.): 14.0 ± 1.6
number of marbles buried relative to control (%) (male ddY mice; fluvoxamine 15 mg/kg p.o.): 86%
number of marbles buried (average ± standard error) (male ddY mice; paroxetine 10 mg/kg p.o.): 11.3 ± 1.5
number of marbles buried relative to control (%) (male ddY mice; paroxetine 10 mg/kg p.o.): 90%
number of marbles buried (average ± standard error) (male ddY mice; sertraline 10 mg/kg p.o.): 12.2 ± 2.2
number of marbles buried relative to control (%) (male ddY mice; sertraline 10 mg/kg p.o.): 91%

CN(C)CC(c1ccc(O)cc1)C1(O)CCCCC1 (centres unmarked) [desvenlafaxin, desvenlafaxine]
immobility time relative to control (%) (ddY male mice; [2]): 95%

CN1C(=O)CN=C(c2ccccc2)c2cc(Cl)ccc21 [diazepam]
number of marbles buried (average ± standard error) (male ddY mice; diazepam 1 mg/kg p.o.): 12.8 ± 2.0
number of marbles buried relative to control (%) (male ddY mice; diazepam 1 mg/kg p.o.): 85%

CNCC[C@H](Oc1cccc2ccccc12)c1cccs1 [duloxetine]
immobility time relative to control (%) (ddY male mice; [3]): 95%

CN(C)CCC[C@@]1(c2ccc(F)cc2)OCc2cc(C#N)ccc21 [escitalopram]
immobility time relative to control (%) (ddY male mice; [4]): 95%

CNCCC(Oc1ccc(C(F)(F)F)cc1)c1ccccc1 (centres unmarked) [fluoxetine]
immobility time relative to control (%) (ddY male mice; [5]): 92%
number of marbles buried (average ± standard error) (male ddY mice; fluoxetine 10 mg/kg p.o.): 17.3 ± 1.5
number of marbles buried relative to control (%) (male ddY mice; fluoxetine 10 mg/kg p.o.): 98%

COCCCC/C(=N\OCCN)c1ccc(C(F)(F)F)cc1 [fluvoxamine]
immobility time relative to control (%) (ddY male mice; [6]): 95%
number of marbles buried (average ± standard error) (male ddY mice; fluvoxamine 15 mg/kg p.o.): 13.5 ± 2.1
number of marbles buried relative to control (%) (male ddY mice; fluvoxamine 15 mg/kg p.o.): 83%

CCN(CC)C(=O)C1(c2ccccc2)CC1CN (centres unmarked) [milnacipran]
immobility time relative to control (%) (ddY male mice; [7]): 97%

Fc1ccc([C@@H]2CCNC[C@H]2COc2ccc3c(c2)OCO3)cc1 [paroxetine]
immobility time relative to control (%) (ddY male mice; [8]): 98%
number of marbles buried (average ± standard error) (male ddY mice; paroxetine 10 mg/kg p.o.): 8.5 ± 2.0
number of marbles buried relative to control (%) (male ddY mice; paroxetine 10 mg/kg p.o.): 60%

CN[C@H]1CC[C@@H](c2ccc(Cl)c(Cl)c2)c2ccccc21 [sertraline]
immobility time relative to control (%) (ddY male mice; [9]): 91%
number of marbles buried (average ± standard error) (male ddY mice; sertraline 10 mg/kg p.o.): 7.5 ± 0.7
number of marbles buried relative to control (%) (male ddY mice; sertraline 10 mg/kg p.o.): 56%

COc1ccc(C(CN(C)C)C2(O)CCCCC2)cc1 (centres unmarked) [venlafaxine]
immobility time relative to control (%) (ddY male mice; [1]): 96%

— patent publication US20180042923A1, “COMBINATIONS COMPRISING BREXPIPRAZOLE OR A SALT THEREOF AND A SECOND DRUG FOR USE IN THE TREATMENT OF A CNS DISORDER” (priority 2011, published 2018)
